Results reported in patent US20230292776A1, “GAS PHASE TREATMENT OF PRODUCE” (priority 2022, published 2023).

Legend:
[1] = tested on: Penicillium italicum (Pi); assay: Antifungal activity of vapor against Penicillium italicum (Pi) in wounded, infected mandarins; assay type: in vivo
Method: Example 2. The antifungal activity of allyl isothiocyanate (AITC) and DADS vapor was tested against Pd and Penicillium italicum (Pi) in mandarins. All samples were wounded by puncturing with a screw. Mandarins were infected by dispensing either 1000 Pd spores or 1000 Pi spores suspended in 10 μL into the wound. The test groups consisted of mandarins that were: uninfected and untreated; uninfected and treated by dipping in a solution of 1 g/L of imazalil; infected with Pd and untreated; infected with Pd and exposed to AITC; infected with Pd and exposed to DADS; infected with Pi and untreated; infected with Pi and exposed to AITC; and infected with Pi and exposed to DADS. Exposure to AITC or DADS consisted of exposing the mandarins for 72 hours to the vapor of 3 mL of the respective compound dispensed in a Petri dish. […] DADS vapor reduced the incidence of Pd mold by 85% and Pi mold by 30% compared to the respective untreated/infected test groups. […] Both AITC and DADS were effective at preventing fungal growth. The inhibition from AITC was approximately 100%, with some changes in visible appearance.

[2] = tested on: Penicillium digitatum (Pd); assay: Antifungal activity of vapor against Penicillium digitatum (Pd) in wounded, infected mandarins; assay type: in vivo; details: for effect on Pd mold: Example 5, 125 μL, assessed after 6 days
Method: Example 1. The antifungal activity of diallyl disulfide (DADS) vapor against Penicillium digitatum (Pd) was tested in mandarins. All samples were wounded by puncturing with a screw and infected by dispensing 1000 Pd spores suspended in 10 μL of water into each wound. The test groups consisted of mandarins that were: untreated; dipped in a solution of 1 g/L of imazalil; and exposed for 72 hours to the vapor of 3 mL of DADS in a Petri dish.
Example 2. The antifungal activity of allyl isothiocyanate (AITC) and DADS vapor was tested against Pd and Penicillium italicum (Pi) in mandarins. All samples were wounded by puncturing with a screw. Mandarins were infected by dispensing either 1000 Pd spores or 1000 Pi spores suspended in 10 μL into the wound. The test groups consisted of mandarins that were: uninfected and untreated; uninfected and treated by dipping in a solution of 1 g/L of imazalil; infected with Pd and untreated; infected with Pd and exposed to AITC; infected with Pd and exposed to DADS; infected with Pi and untreated; infected with Pi and exposed to AITC; and infected with Pi and exposed to DADS. Exposure to AITC or DADS consisted of exposing the mandarins for 72 hours to the vapor of 3 mL of the respective compound dispensed in a Petri dish.
Example 3. The antifungal activity of a reduced dose of AITC vapor against Pd in mandarins was tested. All samples were wounded by puncturing with a screw. Mandarins were infected by dispensing 1000 Pd spores suspended in 10 μL of water into each wound. The test groups consisted of mandarins that were: uninfected and untreated; infected with Pd and untreated; and exposed to the vapor of 500 μL of AITC in a Petri dish for 72 hours.
Example 4. The antifungal activity of a range of AITC vapor concentrations was tested against Pd in mandarins. All mandarins were wounded by puncturing with a screw and infected by dispensing 1000 Pd spores suspended in 10 μL of water in each wound. The fruit was then placed in an airtight container, a range of AITC volumes were disposed onto a Whatman filter paper disc, the disc was suspended in front of a battery-powered fan, and the container closed for 18 hours. The mandarins were then left at ambient temperature and high humidity for 6 days. The test groups were mandarins that were infected and untreated, and infected and treated with 62.5 μL 125 μL 250 μL and 500 μL on the filter paper disc. […] FIG. 6 is a bar graph showing incidence (% infected) for the test groups.
Example 5. The antifungal activity of a range of AITC vapor exposure times was tested to determine the effects against Pd in mandarins. All samples were wounded by puncturing with a screw. Mandarins were infected by dispensing 1000 Pd spores suspended in 10 μL of water in the wound. The fruit was then placed in an airtight container, 125 μL of AITC was dispensed onto a Whatman filter paper disc, the disc suspended in front of a battery-powered fan, and the container closed for 15 minutes to 2 hours. The test groups were then left at ambient temperature, high humidity, and assessed for Pd mold after 6 days. The test groups consisted of mandarins that were: uninfected and untreated; infected and untreated; infected and treated with 0.5 g/L imazalil; infected, treated with 125 μL of AITC on the filter paper, and exposed to the vapor for 15 minutes, 30 minutes, 1 hour, and 2 hours.

grapes = assay: Visible appearance of vapor-treated grapes; assay type: in vivo, grape
Method: Example 12. The antifungal activity of AITC and DADS vapor against Botrytis cinerea (Bc) in grapes was tested. All samples were wounded by making a 3 mm deep puncture in the skin. Samples were infected by dispensing 1000 Bc spores suspended in 10 μL of water in the wound. The test groups consisted of grapes that were: uninfected and untreated; infected and untreated; exposed to the vapor of 3 mL of AITC in a Petri dish for 72 hours; and exposed to the vapor of 3 mL of DADS in a Petri dish for 72 hours. FIG. 17 quantifies the infection results. […] Both AITC and DADS vapor were effective at controlling Bc mold. Treatment with AITC can potentially lead to changes in color or flavor of the grapes.

SMILES	reduction of the incidence of Pi mold compared to untreated/infected test group ([1]; Example 2, 72 hours vapor of 3 mL in a Petri dish) [%]	reduction of the incidence of Pd mold compared to the untreated samples ([2]; Example 1, mandarins, 72 hours vapor of 3 mL in a Petri dish) [%]	reduction of the incidence of Pd mold compared to imazalil treated samples ([2]; Example 1, mandarins, 72 hours vapor of 3 mL, imazalil 1 g/L dip) [%]	reduction of the incidence of Pd mold compared to untreated/infected test group ([2]; Example 2, mandarins, 72 hours vapor of 3 mL in a Petri dish) [%]	visible appearance of grapes (grapes; Example 12, vapor of 3 mL for 72 hours)	inhibition of fungal growth (Pi) ([1]; Example 2, 72 hours vapor of 3 mL)	Pd infection ([2]; Example 3, mandarins, vapor of 500 μL in a Petri dish for 72 hours)	severity of Pd infection ([2]; Example 4, 62.5 μL on filter paper disc, airtight container with fan, 18 hours, 6 days)	effect on Pd mold ([2]; 15 minute exposure)	effect on Pd mold ([2]; 2 hour exposure)	visible appearance of grapes (grapes; in vivo)
C=CCSSCC=C [DADS, diallyl disulfide]	30	95.8	19.1	85	appeared unchanged	–	–	–	–	–	–
C=CCN=C=S [AITC, allyl isothiocyanate]	–	–	–	–	–	approximately 100%	substantially prevented Pd infections	reduced the severity of infection relative to the untreated group	little effect on Pd mold	substantially eliminated the mold	darkening of the fruit
